This note sets out measurements from patent US20190070296A1, “SONODYNAMIC THERAPY” (LI-COR, INC., priority 2017, published 2019).

Data set [1] is described as follows: Sonoactivation of IRDye 700DX solution; reactive oxygen species detected with dihydrorhodamine 123 (DHRd123) indicator. The text has this: The results illustrate that ultrasonic waves enhance the emission of a reactive oxygen species indicator, which indicates the occurrence of one of the sonodynamic effects generated by applying ultrasonic energy to IRDye® 700DX under the experimental conditions. In this example, the concentration of IRDye® 700DX was 1 μm.
The experiment included dihydroxy rhodamine 123 to detect the presence of reactive oxygen species. Reactive oxygen species were detected.
The results illustrate a continuous treatment of a 1 MHz ultrasonic wave. […] The experiment included dihydroxy rhodamine 123 to detect the presence of reactive oxygen species. Reactive oxygen species were detected. […]

Data set [2] in a line: Emission profile of IRDye 700DX (700 nm range) after ultrasound: stability of the dye. The format is physicochemical. To be noted: 1MHz ultrasonic wave at 3 W/cm^2, 15 minutes.
Data set [3] in a line: Sonoactivation of IRDye 700DX solution; singlet oxygen detected with Sensor Green indicator. The note with it: ultrasonic wave at 1MHz and 2.0W/cm^2. An excerpt: As shown therein, there is generation of singlet oxygen during the sonodynamic process. By applying the ultrasonic wave at 1MHz and 2.0W/cm^2 to the agent IRDye® 700DX, the enhancement of the emission of the singlet oxygen indicator, Sensor Green (SG), indicates the occurrence of a sonodynamic effects. Singlet oxygen was detected.
Both sonosensitization, also known as sonodynamic activation or sonoactivation, and photosensitization, also known as photodynamic activation or photoactivation, trigger reactive oxidation species (ROS) or single oxygen (^1O2) that results in cell death via either apoptosis or necrosis, and thus sonodynamic therapy (SDT) or photodynamic therapy (PDT), respectively.

In a further data set the test system is A431 cells. As to the kind of experiment: VB-48 Assay: vitality, viability and necrosis after probe labeling and irradiation. The format is cell-based. The note with it: irradiated 32 J/cm^2; RGD-700DX 0.5 μM, EGF-700DX 0.5 μM, 700DX NHSe 5 μM, Pan-700DX ~0.1 μM; 24 hours post treatment. Here is the method:
Briefly, A431 cells were labeled with respective probes for specific treatments (listed below); cells were rinsed and evaluated for labeling. The test include the following treatments: […], treatments 3-4 of EGF-IRDye® 700DX at 0.5 μM and radiation, treatments 5-6 of IRDye® 700DX NHSe at 5 μM and radiation, treatments 7-8 of panitumumab-IRDye® 700DX at about 0.1 μM and radiation, treatment 9 of a negative control with no probe and no irradiation, and treatment 10 of RGD-IRDye® 700DX and no irradiation. The probes were incubated for about 10 minutes and with a longer period of about 20 minutes for the RGD probe.

[4] abbreviates: continuous treatment of a 1 MHz ultrasonic wave.

`C[Si](C)(CCC[N+](CCCS(=O)(=O)[O-])(CCCS(=O)(=O)[O-])CCCS(=O)(=O)[O-])O[Si]1(O[Si](C)(C)CCC[N+](CCCS(=O)(=O)[O-])(CCCS(=O)(=O)[O-])CCCS(=O)(=O)[O-])n2c3c4ccccc4c2N=C2N=C(N=c4c5ccccc5c(n41)=NC1=NC(=N3)c3ccccc31)c1cccc(OCCCOC(=O)NCCCCCC(=O)ON3C(=O)CCC3=O)c12.[Na+].[Na+].[Na+].[Na+]` (centres unmarked) [IRDye® 700DX]: the “Primary Sonodynamic Effect Detected” value in data set [1] (700DX 1 uM with DHRd123, no sonodynamic activation (placebo), 7 min) is recorded as “None”; in data set [1] (700DX 1 uM with DHRd123, no sonodynamic activation (placebo), 15 min) it was “Minimal”; in data set [1] (700DX with DHRd123, 1 MHz, 2.2 W/cm^2, 7 + 7 min, duty cycle 20%, 370 J/cm^2), “ROS+”; in data set [1] (700DX with DHRd123, 1 MHz, 2.2 W/cm^2, 7 min, duty cycle 20%, 185 J/cm^2), “ROS”; in data set [1] (700DX with DHRd123, 1 MHz, 2.2 W/cm^2, 15 min, duty cycle 20%, 396 J/cm^2), “ROS++”; in data set [1] (700DX with DHRd123, 3.3 MHz, 3 W/cm^2, 7 min, duty cycle 20%, 252 J/cm^2), “ROS”. In addition, the “Primary Sonodynamic Effect Detected” value in data set [1] (700DX with DHRd123, 3.3 MHz, 3 W/cm^2, 15 min, duty cycle 20%, 540 J/cm^2) is reported as “ROS++”. Further, in data set [1] (IRDye 700DX 1 μm, 1MHz ultrasonic wave at 3 W/cm^2, 15 minutes), the “emission of the reactive oxygen species indicator (FIG. 3)” value is on record as “large increase in the emission of the indicator”. In addition, the “emission peak of the reactive oxygen species indicator (FIG. 3)” value in data set [1] (IRDye 700DX 1 μm, duration 7 minutes) is “not as enhanced as with 15 minutes duration”. In addition, the “presence of reactive oxygen species (dihydroxy rhodamine 123), FIG. 3” value in data set [1] (IRDye 700DX 1 μm, ultrasonic wave 7 or 15 minutes) is “detected”. Besides, in data set [1] (setting [4]), the “effect of increasing the pulse duration on reactive oxygen species (FIG. 4)” value was “increases the generation of reactive oxygen species”. For the same compound, the “presence of reactive oxygen species (dihydroxy rhodamine 123), FIG. 4” value in data set [1] (setting [4]) is “detected”. For the same compound, in data set [2], the “chemical structure of the dye after sonodynamic activation (emission profile at 700 nm range)” value is given as “did not decompose”. For the same compound, the “generation of singlet oxygen (Sensor Green), FIG. 5” value in data set [3] is “detected”.
`COC(=O)c1ccccc1C1c2ccc(N)cc2Oc2cc(N)ccc21` [Sensitizer DHRd123 Solution, dihydrorhodamine 123, reference compound]: the “Primary Sonodynamic Effect Detected” value in data set [1] (DHRd123 solution 2.5 uM alone, no IRDye 700DX, no sonodynamic activation) is given as “None”; in data set [1] (DHRd123 solution alone, no IRDye 700DX, 3.3 MHz, 3 W/cm^2, 15 min, duty cycle 20%, 540 J/cm^2), “ROS”.
On to EGF-700DX, for which, in the data set with A431 cells, the Cells/mL is reported as 3.4 × 10^5 Cells/mL and the “Low % Vitality” value came to 19%.
Consider “Pan-700DX: panitumumab antibody labeled with IRDye 700DX”, for which, in the data set with A431 cells, the “% Healthy” value was 15.0%, the “% Necrotic” value is on record as 70%, the Cells/mL was 1.2 × 10^5 Cells/mL and the “Est % Viability” value is given as 30-40%. Besides, in the data set with A431 cells, the “Low % Vitality” value is on record as 15%.
